# Laboratory results from PubChem BioAssay AID1259407 (Chemical Carcinogenesis Research Information System (CCRIS), 2018).
# Active and inactive are the calls of the source. No rule for the calls is given here.
# System: CCRIS mutagenicity, Ames/micronucleus/aberration tests
# Assay: CCRIS mutagenicity studies
# [1] = Test System: AMES SALMONELLA TYPHIMURIUM, Strain/Indicator: TA100, Metabolic Activation: NONE, Method: STANDARD PLATE
# [2] = Test System: AMES SALMONELLA TYPHIMURIUM, Strain/Indicator: TA98, Metabolic Activation: NONE, Method: STANDARD PLATE
# [3] = Test System: AMES SALMONELLA TYPHIMURIUM, Strain/Indicator: TA1535, Metabolic Activation: NONE, Method: STANDARD PLATE
# [4] = Test System: AMES SALMONELLA TYPHIMURIUM, Strain/Indicator: TA1537, Metabolic Activation: NONE, Method: STANDARD PLATE
# [5] = Test System: AMES SALMONELLA TYPHIMURIUM, Strain/Indicator: TA1538, Metabolic Activation: NONE, Method: STANDARD PLATE
smiles,measurement,setting,value
CCOC(=O)C(C)(C)Oc1ccc(Cl)cc1,mutagenic call,"End Point: In vitro micronucleus, Test System: Mouse lymphoma L5178Y cells, Metabolic Activation: None",active; positive
same,mutagenic call,"Test System: AMES SALMONELLA TYPHIMURIUM, Strain/Indicator: TA100(FR1), Metabolic Activation: NONE, Method: STANDARD PLATE",inactive; negative
same,mutagenic call,"Test System: AMES SALMONELLA TYPHIMURIUM, Strain/Indicator: TA100(FR1), Metabolic Activation: RAT, LIVER, S-9, PHENOBARBITAL AND 3-METHYLCHOLANTHRENE, Method: STANDARD PLATE",inactive; negative
same,mutagenic call,[1],inactive; negative
same,mutagenic call,"Test System: AMES SALMONELLA TYPHIMURIUM, Strain/Indicator: TA100, Metabolic Activation: RAT, LIVER, S-9, PHENOBARBITAL AND 3-METHYLCHOLANTHRENE, Method: STANDARD PLATE",inactive; negative
same,mutagenic call,"Test System: AMES SALMONELLA TYPHIMURIUM, Strain/Indicator: TA102, Metabolic Activation: RAT LIVER S-9, PHENOBARBITAL AND 5,6-BENZOFLAVONE, Method: STANDARD PLATE",inactive; negative
same,mutagenic call,"Test System: AMES SALMONELLA TYPHIMURIUM, Strain/Indicator: TA2638, Metabolic Activation: RAT LIVER S-9, PHENOBARBITAL AND 5,6-BENZOFLAVONE, Method: STANDARD PLATE",inactive; negative
same,mutagenic call,"Test System: CHINESE HAMSTER V-79, Strain/Indicator: V-79/6-THIOGUANINE, Metabolic Activation: NONE",inactive; negative
same,mutagenic call,"Test System: CHINESE HAMSTER V-79, Strain/Indicator: V-79/6-THIOGUANINE, Metabolic Activation: RAT, LIVER, HEPATOCYTES",inactive; negative
same,mutagenic call,"Test System: CHINESE HAMSTER V-79, Strain/Indicator: V-79/OUABAIN, Metabolic Activation: NONE",inactive; negative
same,mutagenic call,"Test System: CHINESE HAMSTER V-79, Strain/Indicator: V-79/OUABAIN, Metabolic Activation: RAT, LIVER, HEPATOCYTES",inactive; negative
same,mutagenic call,"Test System: E. COLI, Strain/Indicator: WP2 (PKM101), Metabolic Activation: RAT LIVER S-9, PHENOBARBITAL AND 5,6-BENZOFLAVONE, Method: STANDARD PLATE",inactive; negative
same,mutagenic call,"Test System: E. COLI, Strain/Indicator: WP2 UVRA (PKM101), Metabolic Activation: RAT LIVER S-9, PHENOBARBITAL AND 5,6-BENZOFLAVONE, Method: STANDARD PLATE",inactive; negative
same,mutagenic call,"Test System: Mouse lymphoma, Strain/Indicator: L5178Y (tk+/tk-)/Trifluorothymidine, Metabolic Activation: None, Method: Microtiter",inactive; negative
Nc1cc(N)c(N=Nc2ccc(S(=O)(=O)O)cc2S(=O)(=O)O)cc1N=Nc1ccc(-c2ccc(N/N=C3\C=CC(=O)C(C(=O)O)=C3)cc2)cc1,mutagenic call,"Test System: AMES SALMONELLA TYPHIMURIUM, Strain/Indicator: TA98, Metabolic Activation: HAMSTER, LIVER, S-9, Method: PREINCUBATION (PRIVAL METHOD)",active; positive
C/C=C1\CC2C=CC1C2 (stereo unspecified),mutagenic call,"Test System: AMES SALMONELLA TYPHIMURIUM, Strain/Indicator: TA98, Metabolic Activation: HAMSTER, LIVER, S-9, AROCLOR 1254 (10%), Method: PREINCUBATION",inactive; negative
same,mutagenic call,"Test System: AMES SALMONELLA TYPHIMURIUM, Strain/Indicator: TA98, Metabolic Activation: NONE, Method: PREINCUBATION",inactive; negative
same,mutagenic call,[2],inactive; negative
same,mutagenic call,"Test System: AMES SALMONELLA TYPHIMURIUM, Strain/Indicator: TA98, Metabolic Activation: RAT LIVER S-9, AROCLOR 1254, Method: STANDARD PLATE",inactive; negative
same,mutagenic call,"Test System: AMES SALMONELLA TYPHIMURIUM, Strain/Indicator: TA98, Metabolic Activation: RAT, LIVER, S-9, AROCLOR 1254 (10%), Method: PREINCUBATION",inactive; negative
same,mutagenic call,"Test System: AMES SALMONELLA TYPHIMURIUM, Strain/Indicator: TA100, Metabolic Activation: HAMSTER, LIVER, S-9, AROCLOR 1254 (10%), Method: PREINCUBATION",inactive; negative
same,mutagenic call,"Test System: AMES SALMONELLA TYPHIMURIUM, Strain/Indicator: TA100, Metabolic Activation: NONE, Method: PREINCUBATION",inactive; negative
same,mutagenic call,[1],inactive; negative
same,mutagenic call,"Test System: AMES SALMONELLA TYPHIMURIUM, Strain/Indicator: TA100, Metabolic Activation: RAT LIVER S-9, AROCLOR 1254, Method: STANDARD PLATE",inactive; negative
same,mutagenic call,"Test System: AMES SALMONELLA TYPHIMURIUM, Strain/Indicator: TA100, Metabolic Activation: RAT, LIVER, S-9, AROCLOR 1254 (10%), Method: PREINCUBATION",inactive; negative
same,mutagenic call,"Test System: AMES SALMONELLA TYPHIMURIUM, Strain/Indicator: TA1535, Metabolic Activation: HAMSTER, LIVER, S-9, AROCLOR 1254 (10%), Method: PREINCUBATION",inactive; negative
same,mutagenic call,"Test System: AMES SALMONELLA TYPHIMURIUM, Strain/Indicator: TA1535, Metabolic Activation: NONE, Method: PREINCUBATION",inactive; negative
same,mutagenic call,[3],inactive; negative
same,mutagenic call,"Test System: AMES SALMONELLA TYPHIMURIUM, Strain/Indicator: TA1535, Metabolic Activation: RAT LIVER S-9, AROCLOR 1254, Method: STANDARD PLATE",inactive; negative
same,mutagenic call,"Test System: AMES SALMONELLA TYPHIMURIUM, Strain/Indicator: TA1535, Metabolic Activation: RAT, LIVER, S-9, AROCLOR 1254 (10%), Method: PREINCUBATION",inactive; negative
same,mutagenic call,"Test System: AMES SALMONELLA TYPHIMURIUM, Strain/Indicator: TA1537, Metabolic Activation: HAMSTER, LIVER, S-9, AROCLOR 1254 (10%), Method: PREINCUBATION",inactive; negative
same,mutagenic call,"Test System: AMES SALMONELLA TYPHIMURIUM, Strain/Indicator: TA1537, Metabolic Activation: NONE, Method: PREINCUBATION",inactive; negative
same,mutagenic call,[4],inactive; negative
same,mutagenic call,"Test System: AMES SALMONELLA TYPHIMURIUM, Strain/Indicator: TA1537, Metabolic Activation: RAT LIVER S-9, AROCLOR 1254, Method: STANDARD PLATE",inactive; negative
same,mutagenic call,"Test System: AMES SALMONELLA TYPHIMURIUM, Strain/Indicator: TA1537, Metabolic Activation: RAT, LIVER, S-9, AROCLOR 1254 (10%), Method: PREINCUBATION",inactive; negative
same,mutagenic call,[5],inactive; negative
same,mutagenic call,"Test System: AMES SALMONELLA TYPHIMURIUM, Strain/Indicator: TA1538, Metabolic Activation: RAT LIVER S-9, AROCLOR 1254, Method: STANDARD PLATE",inactive; negative
same,mutagenic call,"Test System: CHINESE HAMSTER OVARY, Strain/Indicator: CHO-K1-BH4 (HGPRT)/6-THIOGUANINE, Metabolic Activation: NONE",inactive; negative
same,mutagenic call,"Test System: CHINESE HAMSTER OVARY, Strain/Indicator: CHO-K1-BH4 (HGPRT)/6-THIOGUANINE, Metabolic Activation: RAT LIVER S-9, AROCLOR 1254",inactive; negative
COc1cc(N)c([N+](=O)[O-])cc1N,mutagenic call,[2],active; positive
same,mutagenic call,"Test System: AMES SALMONELLA TYPHIMURIUM, Strain/Indicator: TA98, Metabolic Activation: RAT, LIVER, S-9, AROCLOR 1254, Method: STANDARD PLATE",active; positive
same,mutagenic call,[1],inactive; negative
same,mutagenic call,"Test System: AMES SALMONELLA TYPHIMURIUM, Strain/Indicator: TA100, Metabolic Activation: RAT, LIVER, S-9, AROCLOR 1254, Method: STANDARD PLATE",active; positive
same,mutagenic call,[3],inactive; negative
same,mutagenic call,"Test System: AMES SALMONELLA TYPHIMURIUM, Strain/Indicator: TA1535, Metabolic Activation: RAT, LIVER, S-9, AROCLOR 1254, Method: STANDARD PLATE",inactive; negative
same,mutagenic call,[4],active; positive
same,mutagenic call,"Test System: AMES SALMONELLA TYPHIMURIUM, Strain/Indicator: TA1537, Metabolic Activation: RAT, LIVER, S-9, AROCLOR 1254, Method: STANDARD PLATE",active; positive
same,mutagenic call,[5],active; positive
same,mutagenic call,"Test System: AMES SALMONELLA TYPHIMURIUM, Strain/Indicator: TA1538, Metabolic Activation: RAT, LIVER, S-9, AROCLOR 1254, Method: STANDARD PLATE",active; positive
c1ccc(CNc2ncnc3nc[nH]c23)cc1,mutagenic call,[2],inactive; negative
same,mutagenic call,"Test System: AMES SALMONELLA TYPHIMURIUM, Strain/Indicator: TA98, Metabolic Activation: RAT LIVER S-9, 3-METHYLCHOLANTHRENE AND PHENOBARBITAL, Method: STANDARD PLATE",inactive; negative
same,mutagenic call,"Test System: AMES SALMONELLA TYPHIMURIUM, Strain/Indicator: TA98, Metabolic Activation: RAT, LIVER, S-9, AROCLOR, Method: STANDARD PLATE",inactive; negative
same,mutagenic call,[1],inactive; negative
same,mutagenic call,"Test System: AMES SALMONELLA TYPHIMURIUM, Strain/Indicator: TA100, Metabolic Activation: RAT LIVER S-9, 3-METHYLCHOLANTHRENE AND PHENOBARBITAL, Method: STANDARD PLATE",inactive; negative
same,mutagenic call,"Test System: AMES SALMONELLA TYPHIMURIUM, Strain/Indicator: TA100, Metabolic Activation: RAT, LIVER, S-9, AROCLOR, Method: STANDARD PLATE",inactive; negative
same,mutagenic call,"Test System: CHINESE HAMSTER V-79, Strain/Indicator: V-79/6-THIOGUANINE (HGPRT), Metabolic Activation: NONE, Method: STANDARD PLATE",inactive; negative
